According to patent publication US9828630B2, “Methods of enhancing genetic diagnosis” (BioLamina AB, priority 2011, dated 2017):
Entries after “also recorded” stand apart in the source; their conditions may differ.

How the values were obtained:
hES cells = assay: Clonal survival of individualized hES cells at 250 cells per cm^2; type: cell-based, human; conditions: laminin-521/E-Cadherin matrix
Method: hES cells were plated in mTeSR1 medium on different coatings at a density of 250 cells per cm^2 and monitored after 5 days in culture using an alkaline phosphatase staining kit.
Next, combinations of laminin-521 and E-Cadherin were tested to determine whether the combinations could sustain clonal survival of the cells. Fixed amounts of laminin-521 were used for the cell culture dish coating in combination with titrated E-Cadherin.
Additional tests were performed to test the effects of various modifications to the mTeSR1 medium. A mixture of E-Cadherin to laminin-521 in a ratio of about 1:10 w/w was used to coat the plates. […] Time-lapse photography of the cells confirmed that laminin-521/E-Cadherin coatings facilitated cell survival through proliferation of the single cells, not through the aggregation of different cells.

human ES cells [1] = assay: Cell survival assay, 24 hours (1 day) after plating from single cell suspension; type: cell-based; conditions: for survival / attachment of dissociated hES cells 24 hours (one day) after plating: single cell suspension, O3 medium, no ROCK inhibitor
Method: (§1) The assay was performed as described (Extracellular Matrix Protocols, 2000). Briefly, 96-well plates were coated by extracellular matrix proteins as described above and blocked by O3 medium containing bovine serum albumin. The ES cells were plated at a cell density of 600 cell/mm^2 upon extracellular matrix-coated plates and were left to adhere for either 1 hour or 1 day at the cell incubator. Non-adherent cells were washed away, and adherent cells were fixed for 20 min by 5% glutaraldehyde, stained by 0.1% Crystal Violet.
(§2) The survival assay was performed as described for the cell adhesion assay above, except that the cells were left in the cell incubator for 24 hours. For inhibition of survival assay, the cells were kept in a medium with function blocking antibodies at the concentrations recommended by the manufacturer or pathway inhibitors at concentrations indicated in the text for 30 minutes, and then plated on the coated dishes. All the experiments were performed in quadruplicate.
Pluripotent hES cells express α1, α5, β1, β2 and γ1 laminin chains. To compare the adhesion and clonal survival of hES cells plated from single cell suspension to different coating substrata, hES cells growing as monolayers on LN-511 or as clusters on a feeder layer were trypsinized into single cell suspension in O3 medium and plated on cell culture dishes coated with Matrigel, LN-111, LN-511, LN-521 or a mixture of LN-511 and LN-521, in the absence or presence of a ROCK inhibitor (Y-27632) and analyzed after 24 hours.

human ES and iPS cells = conditions: human ES cells grown on laminin-511; cited from earlier work
human ES cells [2] = assay: Cell adhesion assay, 1 hour after plating on coated plates; type: cell-based
Method: as §1
Briefly, 96-well plates were coated by extracellular matrix proteins as described above and blocked by O3 medium containing bovine serum albumin. The ES cells were plated at cell density of 50,000 cells/cm^2 onto extracellular matrix-coated plates and left to adhere for 1 hour in a cell incubator. After that the plates were washed 3 times with the medium to remove the non-adherent cells, and then the adherent cells were fixed for 20 minutes by 5% glutaraldehyde, stained by 0.1% Crystal Violet. (Kebo Lab, Spanga, Sweden, http://www.kebolab.se). After one hour and 3 washes with water, Crystal Violet was extracted with 10% acetic acid and quantified by measuring optical density at 570 nm. All the experiments were performed in quadruplicate.

mouse ES cells = conditions: without LIF or feeder cells; cited from earlier work
Akt and MEK1 = assay: Western blot of inhibitor treated and control cells one hour after plating on LN-521; type: cell-based, human; conditions: one hour after plating on LN-521, FIG. 18 and 19
Method: HS 181 cells were trypsinized into single cell suspension as described above. For inhibition experiments, the cells were kept in O3 medium with blocking antibodies or pathway inhibitors for 30 minutes and then […] cells were plated on 35 mm dishes precoated with the appropriate matrix coating. For other experiments, same number of cells was plated directly after trypsinization. In all cases the cells were allowed to spread for 1 hour at 37° C., 5% CO2. After two washings in ice-cold PBS, the plates with cells were snap frozen in liquid nitrogen and stored at -80° C. To prepare samples for western blots and ELISA, the plates were slowly thawed and kept on ice with 100-150 μl of lysis buffer (50 mM Tris-HCl, pH7.5, 150 mM NaCl, 0.5% deoxycholate, 0.5% SDS, 1% Triton X-100, 1% Igepal, CompleteTM (Roche) and Phospho-StopTM (Roche)) on top. Then, the cells were scraped, pipetted and sheared through a 27 G 3⁄4'' needle. After that, the cell pellets were clarified by centrifugation at 16,100 rcf for 15 minutes at 4° C. For western blots, 4-12% gradient gels were used for SDS electrophoresis and the proteins were transferred to PVDF membranes. The membrane was hybridized with the antibody of interest according to the manufacturer's instructions. […] For the densitometry analysis the films were scanned at 2,400 dpi and analyzed by the […]5500 program (1 D-Multi Line densitometry mode). […]

human ES cells on LN-521 = assay: Inhibition of survival assay on LN-521 (function blocking antibodies, pathway inhibitors); type: cell-based; conditions: medium contained bFGF, FIG. 16
Method: as §2

albumin
effect of 2× increase in albumin concentration in mTeSR1 on clonal survival (hES cells): significantly improved clonal survival

LN-121: human recombinant laminin of α1, β2 and γ1 chains from triple transfected HEK293 cells
survival / attachment of dissociated hES cells 24 hours (one day) after plating (human ES cells [1]): failed to survive

human recombinant LN-111: human recombinant laminin of α1, β1 and γ1 chains from triple transfected HEK293 cells
survival / attachment of dissociated hES cells 24 hours (one day) after plating (human ES cells [1]): failed to survive

LN-511: human recombinant laminin-511 coating
survival / attachment of dissociated hES cells 24 hours (one day) after plating (human ES cells [1]): did so as single cells; also recorded: very few
survival / attachment of dissociated hES cells 24 hours (one day) after plating (human ES cells [1]; listed as human r-laminin-511): at a less extent
survival / attachment of dissociated hES cells 24 hours (one day) after plating (human ES cells [1]; listed as laminin-511): in most cases
time hES cells maintain pluripotency and can generate teratomas in SCID mice (human ES and iPS cells): over 3 months
adhesion of human ES cells after 1 hour (human ES cells [2]; O3 medium without any additives, without Y-27632, FIG. 6): roughly the same
spreading of the cells after one hour compared with Matrigel or LN-111 (human ES cells [2]; dissociated hES cells, not shown): clearly better
time of self-renewal of mouse ES cells (mouse ES cells): over 5 months

C[C@@H](N)[C@H]1CC[C@H](C(=O)Nc2ccncc2)CC1 [Y-27632]
attachment / survival of hES cells 24 hours after plating in presence of ROCK inhibitor (human ES cells [1]; O3 medium with Y-27632, Matrigel, LN-111, LN-511, LN-521 and mixture coatings): remained attached on all 5 coatings; also recorded: survived on all surfaces
cell shape 24 hours after plating on LN-521 (human ES cells [1]; absence or presence of ROCK inhibitor): spindle or crescent like shape

LN-111: mouse laminin-111 (Invitrogen), indicated as LN-111 if not otherwise stated
survival / attachment of dissociated hES cells 24 hours (one day) after plating (human ES cells [1]): did not survive; also recorded: almost no cells had survived
survival / attachment of dissociated hES cells 24 hours (one day) after plating (human ES cells [1]; listed as mouse laminin-111): almost no cells remained attached

COc1cccc(-c2cc(=O)c3ccccc3o2)c1N [PD 98059]
efficacy of inhibitor treatment by western blot (Akt and MEK1): confirmed
survival of hES cells 24 hours after plating on LN-521 with pathway inhibitor (human ES cells on LN-521): did not affect the survival that severely
